{"source": "patent US10844077B2", "about": "“Thiazolyl-containing compounds for treating proliferative diseases” (Dana-Farber Cancer Institute, Inc., priority 2014, dated 2020)", "test_in_all_cases": "KINATIV assay of compounds I-3 and I-9, lysate directly labeled with ATP-biotin probe (no GF)", "type_in_all_cases": "cell-based", "key": {"[1]": {"molecular_target": "kinases in BCWM.1 cells (Homo sapiens, UniProt Q9Y2H1)", "sequence (Q9Y2H1 2-464 limits assumed)": "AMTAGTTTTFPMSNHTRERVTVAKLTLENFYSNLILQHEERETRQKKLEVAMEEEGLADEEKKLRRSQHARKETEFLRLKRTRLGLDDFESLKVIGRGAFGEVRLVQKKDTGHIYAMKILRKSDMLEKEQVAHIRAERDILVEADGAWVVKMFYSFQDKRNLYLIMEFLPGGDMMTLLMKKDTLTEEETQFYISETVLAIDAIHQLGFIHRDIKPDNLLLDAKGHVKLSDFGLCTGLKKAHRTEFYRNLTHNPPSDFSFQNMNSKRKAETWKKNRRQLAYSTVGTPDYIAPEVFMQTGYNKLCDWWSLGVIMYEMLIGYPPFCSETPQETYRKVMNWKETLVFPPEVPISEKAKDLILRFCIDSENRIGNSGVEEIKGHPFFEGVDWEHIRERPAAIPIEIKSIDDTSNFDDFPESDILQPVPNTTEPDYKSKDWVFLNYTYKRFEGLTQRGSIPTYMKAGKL", "details": "NDR2; Lys2; 1 μM, 90 min; no GF", "description": "(§1) The cells were harvested and lysed. […] Bound kinases were identified and quantitated by ACTIVX as described in Patricelli et al., Biochemistry, 2007, 46(2): 350-358. The compounds were tested in duplicates against duplicate or quadruplicate control samples."}, "[2]": {"molecular_target": "kinases in BCWM.1 cells (Homo sapiens, UniProt P51955)", "details": "NEK2; Lys2; 1 μM, 90 min; no GF", "description": "as §1"}, "[3]": {"molecular_target": "kinases in BCWM.1 cells (Homo sapiens, UniProt Q9UKE5)", "details": "ZC2/TNIK; Lys1; 1 μM, 90 min; no GF", "description": "as §1"}, "[4]": {"molecular_target": "kinases in BCWM.1 cells (Homo sapiens, UniProt O00750)", "details": "PIK3C2B; ATP; 1 μM, 90 min; no GF", "description": "as §1"}, "[5]": {"molecular_target": "kinases in BCWM.1 cells (Homo sapiens, UniProt P30291)", "details": "Wee1; Lys2; 1 μM, 90 min; no GF", "description": "as §1"}, "[6]": {"molecular_target": "kinases in BCWM.1 cells (Homo sapiens, UniProt Q00536)", "description": "as §1"}, "[7]": {"molecular_target": "kinases in BCWM.1 cells (Homo sapiens, UniProt O43318)", "details": "TAK1; Lys2; 1 μM, 90 min; no GF", "description": "as §1"}, "[8]": {"molecular_target": "kinases in BCWM.1 cells (Homo sapiens, UniProt Q96BR1)", "details": "SGK3; Lys1; 1 μM, 90 min; no GF", "description": "as §1"}, "[9]": {"molecular_target": "kinases in BCWM.1 cells (Homo sapiens, UniProt Q6PHR2)", "details": "ULK3; Lys2; 1 μM, 90 min; no GF", "description": "as §1"}, "[10]": {"molecular_target": "kinases in BCWM.1 cells (Homo sapiens, UniProt Q13464)", "sequence (Q13464 2-1354 limits assumed)": "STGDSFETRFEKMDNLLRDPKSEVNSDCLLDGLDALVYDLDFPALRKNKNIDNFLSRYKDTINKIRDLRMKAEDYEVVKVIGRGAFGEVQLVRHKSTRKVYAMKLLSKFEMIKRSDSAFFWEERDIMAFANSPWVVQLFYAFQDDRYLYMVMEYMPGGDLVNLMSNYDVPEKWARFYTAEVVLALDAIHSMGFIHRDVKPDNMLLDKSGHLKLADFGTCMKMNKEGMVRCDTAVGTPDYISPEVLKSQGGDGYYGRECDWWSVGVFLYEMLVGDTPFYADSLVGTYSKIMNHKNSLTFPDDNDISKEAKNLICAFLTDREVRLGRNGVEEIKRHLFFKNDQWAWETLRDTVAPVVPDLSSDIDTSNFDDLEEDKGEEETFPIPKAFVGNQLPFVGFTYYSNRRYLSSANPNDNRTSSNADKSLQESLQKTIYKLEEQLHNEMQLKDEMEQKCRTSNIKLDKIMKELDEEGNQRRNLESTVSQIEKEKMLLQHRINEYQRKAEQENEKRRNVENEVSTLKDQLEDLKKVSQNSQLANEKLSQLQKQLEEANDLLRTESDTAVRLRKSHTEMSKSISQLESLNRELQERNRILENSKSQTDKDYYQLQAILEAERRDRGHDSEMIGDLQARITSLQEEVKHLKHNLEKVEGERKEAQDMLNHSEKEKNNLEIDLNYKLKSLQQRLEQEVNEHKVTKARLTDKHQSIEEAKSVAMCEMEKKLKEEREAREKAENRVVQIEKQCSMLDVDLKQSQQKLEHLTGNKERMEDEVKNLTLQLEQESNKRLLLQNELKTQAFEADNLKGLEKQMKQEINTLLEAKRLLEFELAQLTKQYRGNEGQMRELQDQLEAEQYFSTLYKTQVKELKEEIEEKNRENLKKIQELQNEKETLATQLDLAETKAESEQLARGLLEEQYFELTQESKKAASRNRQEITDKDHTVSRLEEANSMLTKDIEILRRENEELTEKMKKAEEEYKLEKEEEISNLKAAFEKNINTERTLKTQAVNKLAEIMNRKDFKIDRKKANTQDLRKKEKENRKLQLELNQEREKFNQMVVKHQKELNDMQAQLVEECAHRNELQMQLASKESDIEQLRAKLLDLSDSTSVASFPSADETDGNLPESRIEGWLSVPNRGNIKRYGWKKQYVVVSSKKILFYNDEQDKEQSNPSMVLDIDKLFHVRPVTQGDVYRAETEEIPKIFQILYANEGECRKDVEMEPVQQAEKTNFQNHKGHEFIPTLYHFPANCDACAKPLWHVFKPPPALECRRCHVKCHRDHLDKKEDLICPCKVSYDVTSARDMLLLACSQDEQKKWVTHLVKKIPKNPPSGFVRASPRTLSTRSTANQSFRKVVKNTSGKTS", "details": "ROCK1; Protein Kinase Domain; 1 μM, 90 min; no GF", "description": "as §1"}, "[11]": {"molecular_target": "kinases in BCWM.1 cells (Homo sapiens, UniProt Q9UBS0)", "details": "p70S6Kb; Lys2; 1 μM, 90 min; no GF", "description": "as §1"}, "[12]": {"molecular_target": "kinases in BCWM.1 cells (Homo sapiens, UniProt Q8TBX8)", "sequence (Q8TBX8 2-421 limits assumed)": "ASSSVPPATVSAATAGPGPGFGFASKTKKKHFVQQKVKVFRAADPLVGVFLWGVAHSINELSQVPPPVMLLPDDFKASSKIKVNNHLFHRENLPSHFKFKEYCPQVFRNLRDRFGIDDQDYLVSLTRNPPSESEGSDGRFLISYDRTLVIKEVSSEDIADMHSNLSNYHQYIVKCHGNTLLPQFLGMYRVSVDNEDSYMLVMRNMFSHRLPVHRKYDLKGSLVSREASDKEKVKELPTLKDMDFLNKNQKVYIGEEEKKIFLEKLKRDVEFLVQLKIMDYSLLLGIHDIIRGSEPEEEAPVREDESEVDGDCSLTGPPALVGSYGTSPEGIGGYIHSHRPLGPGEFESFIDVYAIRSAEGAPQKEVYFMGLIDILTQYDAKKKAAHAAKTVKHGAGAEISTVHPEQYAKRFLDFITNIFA", "details": "PIP4K2C; ATP; 1 μM, 90 min; no GF", "description": "as §1"}, "[13]": {"molecular_target": "kinases in BCWM.1 cells (Homo sapiens, UniProt P42680)", "details": "TEC; Activation Loop; 1 μM, 90 min; no GF", "description": "as §1"}, "[14]": {"molecular_target": "kinases in BCWM.1 cells (Homo sapiens, UniProt Q96Q15)", "details": "SMG1; ATP; 1 μM, 90 min; no GF", "description": "as §1"}, "[15]": {"molecular_target": "kinases in BCWM.1 cells (Homo sapiens, UniProt P43405)", "details": "SYK; Activation Loop; 1 μM, 90 min; no GF", "description": "as §1"}, "[16]": {"molecular_target": "kinases in BCWM.1 cells (Homo sapiens, UniProt O00329)", "details": "PIK3CD; ATP; 1 μM, 90 min; no GF", "description": "as §1"}, "[17]": {"molecular_target": "kinases in BCWM.1 cells (Homo sapiens, UniProt Q96S44)", "details": "PRPK; ATP Loop; 1 μM, 90 min; no GF", "description": "as §1"}, "[18]": {"molecular_target": "kinases in BCWM.1 cells (Homo sapiens, UniProt Q9NRH2)", "details": "SNRK; Lys2; 1 μM, 90 min; no GF", "description": "as §1"}, "[19]": {"molecular_target": "kinases in BCWM.1 cells (Homo sapiens, UniProt Q9H2G2)", "details": "SLK; Lys2; 1 μM, 90 min; no GF", "description": "as §1"}, "[20]": {"molecular_target": "kinases in BCWM.1 cells (Homo sapiens, UniProt Q16512)", "sequence (Q16512 2-942 limits assumed)": "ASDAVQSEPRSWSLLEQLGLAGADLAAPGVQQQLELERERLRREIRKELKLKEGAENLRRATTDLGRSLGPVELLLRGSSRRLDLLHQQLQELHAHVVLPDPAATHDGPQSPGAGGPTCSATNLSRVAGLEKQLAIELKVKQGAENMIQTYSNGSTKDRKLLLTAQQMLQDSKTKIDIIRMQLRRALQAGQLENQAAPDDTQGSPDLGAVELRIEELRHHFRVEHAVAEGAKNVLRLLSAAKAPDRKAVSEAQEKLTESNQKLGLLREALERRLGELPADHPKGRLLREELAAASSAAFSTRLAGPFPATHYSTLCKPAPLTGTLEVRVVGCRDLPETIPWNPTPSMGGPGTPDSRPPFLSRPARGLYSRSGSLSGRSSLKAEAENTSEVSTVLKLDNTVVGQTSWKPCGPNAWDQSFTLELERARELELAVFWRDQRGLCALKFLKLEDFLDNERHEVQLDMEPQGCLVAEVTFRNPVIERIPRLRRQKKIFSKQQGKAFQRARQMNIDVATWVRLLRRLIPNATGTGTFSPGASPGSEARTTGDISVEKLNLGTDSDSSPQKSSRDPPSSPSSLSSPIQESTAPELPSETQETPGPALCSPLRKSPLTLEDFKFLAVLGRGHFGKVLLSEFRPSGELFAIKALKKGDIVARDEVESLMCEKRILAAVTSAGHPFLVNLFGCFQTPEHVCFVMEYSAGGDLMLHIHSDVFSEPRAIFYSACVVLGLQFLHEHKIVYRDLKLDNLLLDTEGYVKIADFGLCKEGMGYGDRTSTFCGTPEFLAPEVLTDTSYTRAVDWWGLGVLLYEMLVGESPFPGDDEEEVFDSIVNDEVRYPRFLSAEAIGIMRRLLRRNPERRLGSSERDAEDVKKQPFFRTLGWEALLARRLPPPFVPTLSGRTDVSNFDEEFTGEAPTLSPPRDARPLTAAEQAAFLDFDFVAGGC", "details": "PKN1; Lys1; 1 μM, 90 min; no GF", "description": "as §1"}, "[21]": {"molecular_target": "kinases in BCWM.1 cells (Homo sapiens, UniProt P12931)", "sequence (P12931 2-536 limits assumed)": "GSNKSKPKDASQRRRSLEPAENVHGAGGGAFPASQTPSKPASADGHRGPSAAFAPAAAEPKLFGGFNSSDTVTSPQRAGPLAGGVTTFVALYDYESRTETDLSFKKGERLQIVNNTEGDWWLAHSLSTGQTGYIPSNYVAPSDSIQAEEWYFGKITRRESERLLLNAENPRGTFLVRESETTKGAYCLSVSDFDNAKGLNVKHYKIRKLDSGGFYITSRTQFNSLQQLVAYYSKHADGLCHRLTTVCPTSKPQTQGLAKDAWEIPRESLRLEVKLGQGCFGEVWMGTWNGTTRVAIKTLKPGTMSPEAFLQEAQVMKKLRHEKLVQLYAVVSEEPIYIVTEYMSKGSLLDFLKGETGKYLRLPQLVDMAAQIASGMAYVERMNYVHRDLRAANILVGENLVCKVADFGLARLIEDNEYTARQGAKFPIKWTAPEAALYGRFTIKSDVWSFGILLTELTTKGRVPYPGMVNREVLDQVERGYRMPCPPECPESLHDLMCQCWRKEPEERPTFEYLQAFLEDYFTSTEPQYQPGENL", "details": "SRC; Lys1; 1 μM, 90 min; no GF", "description": "as §1"}, "[22]": {"molecular_target": "kinases in BCWM.1 cells (Homo sapiens, UniProt P48736)", "details": "PIK3CG; ATP; 1 μM, 90 min; no GF", "description": "as §1"}, "[23]": {"molecular_target": "kinases in BCWM.1 cells (Homo sapiens, UniProt Q96PY6)", "details": "NEK1; Lys2; 1 μM, 90 min; no GF", "description": "as §1"}, "[24]": {"molecular_target": "kinases in BCWM.1 cells (Homo sapiens, UniProt Q9UBF8)", "sequence (Q9UBF8 2-816 limits assumed)": "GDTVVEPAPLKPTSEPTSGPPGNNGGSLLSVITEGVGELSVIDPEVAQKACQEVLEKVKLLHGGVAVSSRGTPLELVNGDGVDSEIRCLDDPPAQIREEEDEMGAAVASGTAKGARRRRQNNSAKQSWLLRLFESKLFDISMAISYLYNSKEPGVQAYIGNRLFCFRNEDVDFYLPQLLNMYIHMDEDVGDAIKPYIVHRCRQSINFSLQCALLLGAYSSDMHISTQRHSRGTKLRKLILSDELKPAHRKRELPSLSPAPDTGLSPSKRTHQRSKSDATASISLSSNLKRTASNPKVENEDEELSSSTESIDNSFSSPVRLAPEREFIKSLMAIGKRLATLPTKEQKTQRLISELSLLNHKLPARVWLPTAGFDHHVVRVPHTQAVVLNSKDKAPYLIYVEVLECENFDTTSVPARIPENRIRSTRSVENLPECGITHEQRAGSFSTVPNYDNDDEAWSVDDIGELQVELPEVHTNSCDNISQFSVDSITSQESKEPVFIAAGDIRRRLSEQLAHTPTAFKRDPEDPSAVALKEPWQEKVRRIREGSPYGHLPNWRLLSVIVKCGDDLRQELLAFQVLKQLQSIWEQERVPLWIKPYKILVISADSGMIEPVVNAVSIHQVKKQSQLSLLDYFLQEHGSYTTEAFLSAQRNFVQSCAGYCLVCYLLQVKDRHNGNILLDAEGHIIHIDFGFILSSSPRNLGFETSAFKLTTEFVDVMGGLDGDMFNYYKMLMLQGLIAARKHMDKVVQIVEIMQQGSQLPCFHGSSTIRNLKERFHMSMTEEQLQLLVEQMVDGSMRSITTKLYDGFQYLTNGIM", "details": "PI4KB; ATP; 1 μM, 90 min; no GF", "description": "as §1"}, "[25]": {"molecular_target": "kinases in BCWM.1 cells (Homo sapiens, UniProt P42338)", "details": "PIK3CB; ATP; 1 μM, 90 min; no GF", "description": "as §1"}, "[26]": {"molecular_target": "kinases in BCWM.1 cells (Homo sapiens, UniProt Q8TDX7)", "details": "NEK7; Lys1; 1 μM, 90 min; no GF", "description": "as §1"}, "[27]": {"molecular_target": "kinases in BCWM.1 cells (Homo sapiens, UniProt Q9UHD2)", "details": "TBK1; Lys1; 1 μM, 90 min; no GF", "description": "as §1"}, "[28]": {"molecular_target": "kinases in BCWM.1 cells (Homo sapiens, UniProt O75385)", "details": "ULK1; Lys2; 1 μM, 90 min; no GF", "description": "as §1"}}, "data": [{"smiles": "C=CC(=O)N1CC[C@H](Nc2nccc(Nc3ncc(C(=O)Nc4c(C)cccc4C)s3)n2)C1", "note": "[Example I-3]", "values": [{"measurement": "% change of MS signal compared to control sample", "setting": "[1]", "result": 11.6, "unit": "%"}, {"measurement": "% change of MS signal compared to control sample", "setting": "[2]", "result": 20.5, "unit": "%"}, {"measurement": "% change of MS signal compared to control sample", "setting": "[3]", "result": "−15.6", "unit": "%"}, {"measurement": "% change of MS signal compared to control sample", "setting": "[4]", "result": "−1.8", "unit": "%"}, {"measurement": "% change of MS signal compared to control sample", "setting": "[5]", "result": "−32.7", "unit": "%"}, {"measurement": "% change of MS signal compared to control sample", "setting": "[6]", "result": 10, "unit": "%"}, {"measurement": "% change of MS signal compared to control sample", "setting": "[7]", "result": 2.3, "unit": "%"}, {"measurement": "% change of MS signal compared to control sample", "setting": "[8]", "result": "−0.4", "unit": "%"}, {"measurement": "% change of MS signal compared to control sample", "setting": "[9]", "result": 8.2, "unit": "%"}, {"measurement": "% change of MS signal compared to control sample", "setting": "[10]", "result": 2.6, "unit": "%"}, {"measurement": "% change of MS signal compared to control sample", "setting": "[11]", "result": "−36.7", "unit": "%"}, {"measurement": "% change of MS signal compared to control sample", "setting": "[12]", "result": "−14.1", "unit": "%"}, {"measurement": "% change of MS signal compared to control sample", "setting": "[13]", "result": ">91", "unit": "%"}, {"measurement": "% change of MS signal compared to control sample", "setting": "[14]", "result": 0.6, "unit": "%"}, {"measurement": "% change of MS signal compared to control sample", "setting": "[15]", "result": "−1.2", "unit": "%"}, {"measurement": "% change of MS signal compared to control sample", "setting": "[16]", "result": "−3.4", "unit": "%"}, {"measurement": "% change of MS signal compared to control sample", "setting": "[17]", "result": 2.1, "unit": "%"}, {"measurement": "% change of MS signal compared to control sample", "setting": "[18]", "result": 46.4, "unit": "%"}, {"measurement": "% change of MS signal compared to control sample", "setting": "[19]", "result": 13, "unit": "%"}, {"measurement": "% change of MS signal compared to control sample", "setting": "[20]", "result": "−3.3", "unit": "%"}, {"measurement": "% change of MS signal compared to control sample", "setting": "[21]", "result": 91.7, "unit": "%"}, {"measurement": "% change of MS signal compared to control sample", "setting": "[22]", "result": "−9.6", "unit": "%"}, {"measurement": "% change of MS signal compared to control sample", "setting": "[23]", "result": 7.4, "unit": "%"}, {"measurement": "% change of MS signal compared to control sample", "setting": "[24]", "result": 6.4, "unit": "%"}, {"measurement": "% change of MS signal compared to control sample", "setting": "[25]", "result": "−9.1", "unit": "%"}, {"measurement": "% change of MS signal compared to control sample", "setting": "[26]", "result": 5.7, "unit": "%"}, {"measurement": "% change of MS signal compared to control sample", "setting": "[27]", "result": "−25.1", "unit": "%"}, {"measurement": "% change of MS signal compared to control sample", "setting": "[28]", "result": 9.9, "unit": "%"}]}, {"smiles": "CCC(=O)N1CC[C@H](Nc2nccc(Nc3ncc(C(=O)Nc4c(C)cccc4C)s3)n2)C1", "note": "[Example I-9]", "values": [{"measurement": "% change of MS signal compared to control sample", "setting": "[1]", "result": "−5.6", "unit": "%"}, {"measurement": "% change of MS signal compared to control sample", "setting": "[2]", "result": "−8.2", "unit": "%"}, {"measurement": "% change of MS signal compared to control sample", "setting": "[3]", "result": 23.4, "unit": "%"}, {"measurement": "% change of MS signal compared to control sample", "setting": "[4]", "result": 28.5, "unit": "%"}, {"measurement": "% change of MS signal compared to control sample", "setting": "[5]", "result": 14.3, "unit": "%"}, {"measurement": "% change of MS signal compared to control sample", "setting": "[6]", "result": 4.1, "unit": "%"}, {"measurement": "% change of MS signal compared to control sample", "setting": "[7]", "result": "−1.4", "unit": "%"}, {"measurement": "% change of MS signal compared to control sample", "setting": "[8]", "result": 1.1, "unit": "%"}, {"measurement": "% change of MS signal compared to control sample", "setting": "[9]", "result": "−16.4", "unit": "%"}, {"measurement": "% change of MS signal compared to control sample", "setting": "[10]", "result": "−7.3", "unit": "%"}, {"measurement": "% change of MS signal compared to control sample", "setting": "[11]", "result": 24.3, "unit": "%"}, {"measurement": "% change of MS signal compared to control sample", "setting": "[12]", "result": 10, "unit": "%"}, {"measurement": "% change of MS signal compared to control sample", "setting": "[13]", "result": 97.4, "unit": "%"}, {"measurement": "% change of MS signal compared to control sample", "setting": "[14]", "result": "−11.6", "unit": "%"}, {"measurement": "% change of MS signal compared to control sample", "setting": "[15]", "result": "−6.5", "unit": "%"}, {"measurement": "% change of MS signal compared to control sample", "setting": "[16]", "result": "−19.7", "unit": "%"}, {"measurement": "% change of MS signal compared to control sample", "setting": "[17]", "result": "−2", "unit": "%"}, {"measurement": "% change of MS signal compared to control sample", "setting": "[18]", "result": 28.6, "unit": "%"}, {"measurement": "% change of MS signal compared to control sample", "setting": "[19]", "result": "−6", "unit": "%"}, {"measurement": "% change of MS signal compared to control sample", "setting": "[20]", "result": "−4.9", "unit": "%"}, {"measurement": "% change of MS signal compared to control sample", "setting": "[21]", "result": 78.6, "unit": "%"}, {"measurement": "% change of MS signal compared to control sample", "setting": "[22]", "result": "−15.1", "unit": "%"}, {"measurement": "% change of MS signal compared to control sample", "setting": "[23]", "result": "−3.7", "unit": "%"}, {"measurement": "% change of MS signal compared to control sample", "setting": "[24]", "result": "−24.3", "unit": "%"}, {"measurement": "% change of MS signal compared to control sample", "setting": "[25]", "result": 33.6, "unit": "%"}, {"measurement": "% change of MS signal compared to control sample", "setting": "[26]", "result": 11.3, "unit": "%"}, {"measurement": "% change of MS signal compared to control sample", "setting": "[27]", "result": 23, "unit": "%"}, {"measurement": "% change of MS signal compared to control sample", "setting": "[28]", "result": "−5.7", "unit": "%"}]}]}
